Measurements as given in ChEMBL document CHEMBL6127051, “Hydrazinecarboxamides: Comprehensive review of their anticancer, anticonvulsive, anti-inflammatory, enzyme inhibition, antioxidant and other activities” (Eur J Med Chem, 2024).
In brackets after ≈: the same amount, converted by molar mass. Values belong to the compound of their own block, whether it stands above or below them.

Experiments:
[1] = Antioxidant activity assessed as DPPH radical scavenging activity at 10 ug/ml; assay type: functional; conditions: dose 10.0 µg/ml
HepG2 [2] = assay: Antiproliferative activity against human HepG2 cells assessed as reduction in cell viability measured for 24 hrs by MTT assay; conditions: HepG2, 24 h
Cholinesterase = Cholinesterase (Equus caballus, UniProt P81908); assay: Inhibition of equine serum BChE using butyrylthiocholine iodide as substrate measured after 15 mins by Ellman's method
Cholinesterase, sequence (P81908 whole entry): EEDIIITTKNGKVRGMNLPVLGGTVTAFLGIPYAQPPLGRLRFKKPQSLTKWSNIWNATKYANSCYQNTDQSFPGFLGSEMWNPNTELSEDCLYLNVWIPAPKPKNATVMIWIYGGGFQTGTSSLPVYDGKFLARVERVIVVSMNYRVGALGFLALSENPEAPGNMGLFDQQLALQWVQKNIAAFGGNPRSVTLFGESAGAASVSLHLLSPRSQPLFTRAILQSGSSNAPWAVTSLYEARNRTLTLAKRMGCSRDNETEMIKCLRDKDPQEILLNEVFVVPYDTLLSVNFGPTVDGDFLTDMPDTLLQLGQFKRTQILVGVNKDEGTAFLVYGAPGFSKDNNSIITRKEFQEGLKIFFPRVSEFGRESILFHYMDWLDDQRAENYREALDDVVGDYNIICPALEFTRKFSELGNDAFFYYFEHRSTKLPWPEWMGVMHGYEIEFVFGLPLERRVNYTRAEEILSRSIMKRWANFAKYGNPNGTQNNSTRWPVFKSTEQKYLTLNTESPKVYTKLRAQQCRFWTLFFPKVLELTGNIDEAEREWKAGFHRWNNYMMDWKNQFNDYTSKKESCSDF

MCF7 [3] = assay: Antiproliferative activity against human MCF7 cells assessed as reduction in cell viability incubated for 72 hrs by MTT assay; assay type: functional, cell-based; conditions: MCF7, 72 h
A549 [4] = assay: Antiproliferative activity against human A549 cells assessed as reduction in cell viability by MTT assay; assay type: functional, cell-based
A549 [5] = assay: Antiproliferative activity against human A549 cells; assay type: functional, cell-based
MCF7 [6] = assay: Cytotoxicity against human MCF7 cells assessed as reduction in cell growth; assay type: functional, cell-based
Mus musculus [7] = assay: Anticonvulsant activity in ip dosed MES induced Kunming mouse seizure model; assay type: functional
MCF7 [8] = assay: Anticancer activity against human MCF7 cells assessed as reduction in cell growth measured after 3 days by MTT assay; assay type: functional, cell-based; conditions: MCF7, 72 h
A549 [9] = assay: Antiproliferative activity against human A549 cells assessed as reduction in cell viability incubated for 72 hrs by MTT assay; assay type: functional, cell-based; conditions: A549, 72 h
NCI-H23 = assay: Antiproliferative activity against human NCI-H23 cells assessed as reduction in cell viability incubated for 72 hrs by MTT assay; assay type: functional, cell-based; conditions: NCI-H23, 72 h
WI-38 = assay: Antiproliferative activity against human WI-38 cells assessed as reduction in cell viability; assay type: functional, cell-based
NCI-H460 = assay: Antiproliferative activity against human NCI-H460 cells by MTT assay; assay type: functional, cell-based
MCF7 [10] = assay: Antiproliferative activity against human MCF7 cells by MTT assay; assay type: functional, cell-based
UO-31 = assay: Antiproliferative activity against human UO-31 cells assessed as inhibition of cell growth at 10 uM relative to control; assay type: functional; set-up: scale not given: the % may be the effect or the level left
A549 [11] = assay: Antiproliferative activity against human A549 cells assessed as reduction in cell viability measured for 24 hrs by MTT assay; conditions: A549, 24 h
[12] = target: T1, Retinoic acid receptor RXR-alpha (Homo sapiens, UniProt P19793); assay: Antagonist activity at RXRalpha (unknown origin) by Alpha Screen assay
T1 sequence (P19793 whole entry): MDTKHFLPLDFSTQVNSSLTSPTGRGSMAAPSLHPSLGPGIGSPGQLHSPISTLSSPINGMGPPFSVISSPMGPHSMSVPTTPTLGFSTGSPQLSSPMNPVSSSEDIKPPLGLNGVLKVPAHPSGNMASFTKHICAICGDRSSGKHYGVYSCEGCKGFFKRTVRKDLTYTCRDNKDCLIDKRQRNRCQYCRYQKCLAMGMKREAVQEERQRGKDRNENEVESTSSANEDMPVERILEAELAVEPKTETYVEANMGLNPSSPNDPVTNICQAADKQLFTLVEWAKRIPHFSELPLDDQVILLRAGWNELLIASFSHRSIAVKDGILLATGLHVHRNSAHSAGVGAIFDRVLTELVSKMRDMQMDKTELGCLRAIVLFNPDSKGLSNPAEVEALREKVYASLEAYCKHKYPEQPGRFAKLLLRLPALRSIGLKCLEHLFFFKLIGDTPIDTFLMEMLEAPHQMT

PC-3 [13] = assay: Cytotoxicity against human PC-3 cells assessed as inhibition of cell growth; assay type: functional, cell-based
MCF7 [14] = assay: Cytotoxicity against human MCF7 cells assessed as inhibition of cell growth; assay type: functional, cell-based
PC-3 [15] = assay: Cytotoxicity against human PC-3 cells; assay type: functional, cell-based
[16] = Cytotoxicity against human HEK cells; assay type: toxicity, cell-based
A549 [17] = assay: Anticancer activity against human A549 cells assessed as inhibition of cell growth at 3 uM incubated for 48 hrs by MTT assay relative to control; assay type: functional; set-up: scale not given: the % may be the effect or the level left
PC-3 [18] = assay: Anticancer activity against human PC-3 cells assessed as inhibition of cell growth at 3 uM incubated for 48 hrs by MTT assay relative to control; assay type: functional; set-up: scale not given: the % may be the effect or the level left
MCF7 [19] = assay: Antiproliferative activity against human MCF7 cells assessed as reduction in cell viability measured for 72 hrs by MTT assay; assay type: functional, cell-based; conditions: MCF7, 72 h
[20] = Antioxidant activity assessed as ABTS radical scavenging activity after 30 mins by spectrophotometric analysis; assay type: functional
Mus musculus [21] = assay: Anticonvulsant activity in ip dosed scPTZ induced Kunming mouse seizure model; assay type: functional
HepG2 [22] = assay: Antiproliferative activity against human HepG2 cells assessed as reduction in cell viability incubated for 72 hrs by MTT assay; assay type: functional, cell-based; conditions: HepG2, 72 h
Mus musculus [23] = assay: Anticonvulsant activity in po dosed scPTZ induced mouse model measured after 4 hrs; assay type: functional

SMILES: COc1ccc(/C=C2\N=C(C)N(NC(=O)N3c4ccccc4C=Cc4ccccc43)C2=O)cc1
Activity [1]: 73.9%

IC50 (HepG2 [2]): 16900 nM
SMILES: CNC(=O)c1cc(Oc2ccc(NC(=O)Nc3ccc(Cl)c(C(F)(F)F)c3)cc2)ccn1 [SORAFENIB]

SMILES: CCCCCCCCCCCCCCCNC(=O)NNC(=O)c1ccc(C(F)(F)F)cc1
IC50 (Cholinesterase): 58000 nM

IC50 (MCF7 [3]): 1000 nM
IC50 (A549 [4]): 4000 nM
IC50 (A549 [5]): 1500 nM
SMILES: COc1cc(NC(C)CCCNC(=O)NNC(=O)NC2CCCC2)c2ncccc2c1 (configuration not stated)

SMILES: O=C(NNC(=O)n1nnc2ccccc21)NOC(=O)c1ccccc1
IC50 (MCF7 [6]): 79000 nM

SMILES: COc1cc(C(=O)NN2C(=O)C(=O)N(Cc3ccccc3)C2=O)cc2c1OCCO2
ED50 (Mus musculus [7]): 13.7 mg/kg

IC50 (MCF7 [8]): 30 nM
SMILES: COc1cc(NC(C)CCCNC(=O)NNC(=O)/C=C/c2cc(OC)c(OC)c(OC)c2)c2ncccc2c1 (configuration not stated)

IC50 (A549 [9]): 1500 nM
IC50 (NCI-H23): 1490 nM
SMILES: COc1cccc(NC(=O)NNC(=O)c2oc3ccccc3c2CN2CCOCC2)c1
IC50 (WI-38): 12900 nM

IC50 (MCF7 [8]): 30 nM
SMILES: COc1cc(NC(C)CCCNC(=O)NNC(=O)/C=C/c2cccc(C(F)(F)F)c2)c2ncccc2c1 (configuration not stated)

IC50 (NCI-H460): 8890 nM
IC50 (MCF7 [10]): 8890 nM
SMILES: Cc1nc(-c2cccnc2)ccc1C(=O)NNC(=O)Nc1ccc(F)cc1F

SMILES: Cc1nc(NC(=O)Nc2ccccc2)sc1C(=O)NNC(=O)Nc1ccccc1
Activity (UO-31): 14.8%

IC50 (HepG2 [2]): 2170 nM
IC50 (A549 [11]): 8390 nM
EC50 [12]: 1050 nM
SMILES: O=C(NCCc1ccccc1)NNC(=O)c1ccc(Nc2nccc(-c3ccncc3)n2)cc1

SMILES: CCc1nc2cc(Cl)c(Cl)cc2n1CC(=O)NNC(=O)Nc1ccccc1
IC50 (PC-3 [13]): 25.2 µg/mL (≈ 62 µM)
IC50 (MCF7 [14]): 25.2 µg/mL (≈ 62 µM)
IC50 (PC-3 [15]): 25.2 µg/mL (≈ 62 µM)
IC50 [16]: 127 µg/mL (≈ 312 µM)

SMILES: O=C(NNC1=NS(=O)(=O)c2ccccc2N1c1ccccc1)Nc1cc(C(F)(F)F)cc(C(F)(F)F)c1
Activity (A549 [17]): 99%
Activity (PC-3 [18]): >=71%

SMILES: CCCCCCCCCCCCCNC(=O)NNC(=O)c1cccc(Br)c1
IC50 (Cholinesterase): 22000 nM

IC50 (MCF7 [8]): 30 nM
SMILES: COc1ccc(/C=C/C(=O)NNC(=O)NCCCC(C)Nc2cc(OC)cc3cccnc23)cc1 (configuration not stated)

IC50 (MCF7 [19]): 1200 nM
SMILES: O=C(NNC(=O)c1cc2ccccc2[nH]1)NC1CCCCC1

SMILES: CC1=N/C(=C\c2ccc(Cl)cc2)C(=O)N1NC(=O)N1c2ccccc2C=Cc2ccccc21
Activity [1]: 73.9%

SMILES: Cc1ccc(N(C(=O)CNN2C(=O)C(=O)N(C(C)C)C2=O)C2(C(N)=O)CCCCC2)cc1
ED50 (Mus musculus [7]): 44.5 mg/kg

SMILES: O=C(Cn1c(Cc2ccccc2)nc2ccccc21)NNC(=O)Nc1ccccc1
Activity [20]: 126%

SMILES: COc1cc(/C=C2\N=C(C)N(NC(=O)N3c4ccccc4C=Cc4ccccc43)C2=O)ccc1O
Activity [1]: 73.9%

SMILES: CCOC(=O)C1(NC(=O)NNS(=O)(=O)c2ccccc2Cl)CC1(C)C (configuration not stated)
ED50 (Mus musculus [21]): 82.6 mg/kg
ED50 (Mus musculus [7]): 82.6 mg/kg

IC50 (HepG2 [2]): 2170 nM
IC50 (A549 [11]): 8390 nM
EC50 [12]: 1050 nM
SMILES: CCCCNC(=O)NNC(=O)c1ccc(Nc2nccc(-c3ccncc3)n2)cc1

SMILES: CCOC(=O)C1(NC(=O)NNc2ccc(F)c(Cl)c2)CC1(C)C (configuration not stated)
ED50 (Mus musculus [21]): 58.1 mg/kg

IC50 (HepG2 [22]): 80700 nM
SMILES: Cc1ccc(S(=O)(=O)NC(=O)NNC(=O)Cn2c(C(C)C)nc3ccccc32)cc1

IC50 (MCF7 [3]): 1000 nM
IC50 (A549 [4]): 4000 nM
IC50 (A549 [5]): 1500 nM
SMILES: COc1cc(NC(C)CCCNC(=O)NNC(=O)NC(=O)c2ccccc2)c2ncccc2c1 (configuration not stated)

IC50 (MCF7 [19]): 1200 nM
SMILES: O=C(NNC(=O)c1cc2ccccc2[nH]1)Nc1ccc(Cl)c(C(F)(F)F)c1

SMILES: O=C(NO)NNC(=O)n1nnc2ccccc21
IC50 (MCF7 [6]): 79000 nM

IC50 (MCF7 [8]): 30 nM
SMILES: COc1cc(NC(C)CCCNC(=O)NNC(=O)/C=C/c2ccc(OC)c(OC)c2)c2ncccc2c1 (configuration not stated)

IC50 (MCF7 [8]): 30 nM
SMILES: COc1cc(NC(C)CCCNC(=O)NNC(=O)/C=C/c2ccccc2F)c2ncccc2c1 (configuration not stated)

SMILES: CC1(C)CC12NC(=O)N(Nc1ccc([N+](=O)[O-])cc1[N+](=O)[O-])C2=O (configuration not stated)
ED50 (Mus musculus [23]): 126 mg/kg
